Measured values taken from patent US11571396B2, “Ketamine for treatment of ADNP syndrome and sensory processing deficits” (priority 2019, dated 2023).

Columns and labels:
ADNP gene expression = conditions: cited from earlier work; for ADNP gene expression increase: somatosensory cortex of post-natal day 7 rats, sedative dose
Neurons = Neurons treated with low concentration ketamine: ADNP levels and growth cones; format: cell-based
Text: We believe that low-dose ketamine, by inducing ADNP, does more than could be with NAP alone.

[1] = system: caspase-3 activation in the hippocampus and somatosensory cortex; test: Ketamine-induced neuronal cell death / injury, low-dose ketamine pre-treatment; format: in vivo, rats; conditions: for high dose ketamine induced injury: low dose ketamine 5 mg/kg, NAP administration
Text: ADNP induction may be partially responsible for the efficacy of a low-dose ketamine pre-treatment in preventing ketamine-induced neuronal cell death. […] It is therefore theorized that low-dose ketamine prevents high-dose ketamine injury at least in part by increasing expression of ADNP.

growth cones = conditions: cited from earlier work

| Compound | ADNP gene expression increase (ADNP gene expression) | gene expression of ADNP (ADNP gene expression; anesthetic doses) | ADNP protein levels (ADNP gene expression; low doses, including in the somatosensory cortex) | ADNP expression (ADNP gene expression; low doses) | negative effects of decreased growth cones (Neurons; 50 μM) | ADNP levels (Neurons; 50 μM, compared with higher ketamine dosing) | location of primary increase in ADNP (Neurons; following ketamine treatment) | total cellular ADNP levels (Neurons; low concentration exposure, 50 or 100 μM) | ADNP in neurites (Neurons; low concentration of ketamine) | growth cones (Neurons; low concentration of ketamine) | apoptosis ([1]; high-dose ketamine, rats) | expression of ADNP ([1]; high-dose ketamine, rats) | high dose ketamine induced injury [1] | ADNP levels ([1]; low-dose ketamine) | caspase-3 activation ([1]; low-dose ketamine, hippocampus and somatosensory cortex) | invasion of dynamic microtubules into growth cones (growth cones) |
| --- | --- | --- | --- | --- | --- | --- | --- | --- | --- | --- | --- | --- | --- | --- | --- | --- |
| C[C@]12N[C@H](Cc3ccccc31)c1ccccc12 [MK801] | 1.5 fold |  |  |  |  |  |  |  |  |  |  |  |  |  |  |  |
| CNC1(c2ccccc2Cl)CCCCC1=O (stereo not drawn) [ketamine] | 1.5 fold | induce gene expression of ADNP | increase ADNP protein levels | induce ADNP expression | not observed | increased at a rate equivalent to higher ketamine dosing | the primary increase in ADNP occurred in the nucleus | notably increased | significant increase | stably expanded growth cones | induce apoptosis | induce | blocks high dose ketamine induced injury | increases ADNP levels | prevents caspase-3 activation |  |
| NAPVSIPQ |  |  |  |  |  |  |  |  |  |  |  |  | blocks high dose ketamine induced injury |  |  | enhance the invasion of dynamic microtubules into growth cones |
